Laboratory results taken from patent US20080085884A1, “Melanin Concentrating Hormone Receptor-1 Antagonist Pyridinones” (Pfizer Inc, priority 2006, published 2008).

Biological target: T1, human MCHR1 (Homo sapiens, UniProt Q99705)
T1 construct: host or cells: CHO
Assay: Cyclic AMP assay (MCHR-1 functional antagonism)
Assay type: cell-based
Settings: CHO cells stably expressing human MCHR1; cAMP accumulation with 25 uM forskolin and 0.2 nM MCH, 90 min; Ki from IC50 by Cheng-Prusoff; read-out: MCHR-1 functional Ki
Method: CHO cell lines stably expressing the human MCHR1 (Euroscreen, Brussels, Belgium) were maintained in DMEM containing Glutamax (Invitrogen, Carlsbad, Calif.), 10% FBS, 400 ug/ml Geneticin.
Cyclic AMP assays. CHO cells stably expressing the human MCHR1 receptors were collected and resuspended at a density of 4.0×10^6 cells/ml in F12 (Hams) media and seeded (20,000 cells per well) into 384-well, solid white Greiner assay plates. […] Cells were incubated at 37° C./5% CO2 for 90 minutes and cAMP accumulation subsequently determined by DiscoveRx Hithunter c-AMP II Assay kit (GE Healthcare, Buckinghamshire, UK) in accordance with manufactures instructions. Luminescence was measured on a LEADseaker imaging system (GE Healthcare, Buckinghamshire, UK). IC50 values were calculated from dose-response data fit using an in-house computer graphics and statistics program.

T1 sequence (Q99705 whole entry): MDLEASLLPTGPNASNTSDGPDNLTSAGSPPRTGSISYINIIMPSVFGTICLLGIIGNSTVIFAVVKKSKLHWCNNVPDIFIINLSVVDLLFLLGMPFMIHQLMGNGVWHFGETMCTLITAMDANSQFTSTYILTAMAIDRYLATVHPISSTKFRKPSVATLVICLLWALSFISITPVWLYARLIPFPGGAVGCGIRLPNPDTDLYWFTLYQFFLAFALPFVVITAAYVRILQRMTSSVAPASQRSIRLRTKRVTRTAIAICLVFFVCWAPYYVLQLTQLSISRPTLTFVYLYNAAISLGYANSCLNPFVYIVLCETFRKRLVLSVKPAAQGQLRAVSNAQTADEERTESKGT

| SMILES | Ki [nM] |
| --- | --- |
| CN(C)[C@@H]1CCN(c2ccc(-n3ccc(OCc4ccccc4)cc3=O)cn2)C1 [Example 56] | 3.69 |
| CN(C)[C@H]1CCN(c2ccc(-n3ccc(OCc4ccccc4)cc3=O)cn2)C1 [Example 57] | 3.66 |
| CNC1CCN(c2ccc(-n3ccc(OCc4ccccc4)cc3=O)cn2)CC1 [Example 58] | 28.8 |
| O=c1cc(OCc2ccccc2)ccn1-c1ccc(N2CCC2)nc1 [Example 59] | 68.3 |
| CC(C)N(C)[C@H]1CCN(c2ccc(-n3ccc(OCc4ccccc4)cc3=O)cn2)C1 [Example 60] | 2.94 |
| O=c1cc(OCc2ccccc2)ccn1-c1ccc(N2CCC(N3CCC3)C2)nc1 (centres unmarked) [Example 61] | 18.7 |
| O=c1cc(OCc2ccccc2)ccn1-c1ccc(N2CCC(N3CCCC3)C2)nc1 (centres unmarked) [Example 63] | 12.1 |
| O=c1cc(OCc2ccccc2)ccn1-c1ccc(N2CC3CCC(C2)N3)nc1 [Example 69] | 124 |
| CC(C)C1CN(c2ccc(-n3ccc(OCc4ccccc4)cc3=O)cn2)CCN1 (centres unmarked) [Example 70] | 102 |
| CC(C)CC1CN(c2ccc(-n3ccc(OCc4ccccc4)cc3=O)cn2)CCN1 (centres unmarked) [Example 71] | 626 |
| CCC1CN(c2ccc(-n3ccc(OCc4ccccc4)cc3=O)cn2)CCN1 (centres unmarked) [Example 72] | 74.6 |
| C[C@@H]1CN(c2ccc(-n3ccc(OCc4ccccc4)cc3=O)cn2)[C@@H](C)CN1 [Example 73] | 517 |
| O=c1cc(OCc2ccccc2)ccn1-c1ccc(N2CC(N3CCCC3)C2)nc1 [Example 78] | 155 |
| O=c1cc(OCc2ccccc2)ccn1-c1ccc(N2CC(N3CCC3)C2)nc1 [Example 79] | 416 |
| COC(=O)N1CCN(c2ccc(-n3ccc(OCc4ccc(F)cc4)cc3=O)cn2)CC1 [Example 81] | 1170 |
| CC(=O)N1CCN(c2ccc(-n3ccc(OCc4ccc(F)cc4)cc3=O)cn2)CC1 [Example 83] | 851 |
| O=c1cc(OCc2ccc(F)cc2)ccn1-c1ccc(N2CCC[C@@H](O)C2)nc1 [Example 87] | 191 |
| O=c1cc(OCc2ccc(F)cc2)ccn1-c1ccc(N2CCC[C@H](O)C2)nc1 [Example 88] | 1140 |
| O=c1cc(OCc2ccc(F)cc2)ccn1-c1ccc(N2CCC2)nc1 [Example 90] | 96.7 |
| O=c1cc(OCc2ccc(F)cc2)ccn1-c1ccc(N2CC(O)C2)nc1 [Example 91] | 396 |
| O=c1cc(COc2ccc(F)cc2)ccn1-c1ccc(N2CC[C@@H](O)C2)nc1 [Example 93] | 1090 |
| O=c1cc(OCc2ccc(F)cc2)ccn1-c1ccc(N2CC(N3CCCC3)C2)nc1 [Example 95] | 147 |

The next lines start with the values.

| Ki [nM] | SMILES |
| --- | --- |
| 195 | O=c1cc(OCc2ccc(F)cc2)ccn1-c1ccc(N2CC(N3CCC3)C2)nc1 [Example 96] |
| 25.8 | O=c1cc(OCc2ccc(Cl)cc2)ccn1-c1ccc(N2C[C@@H](O)[C@@H](O)C2)nc1 [Example 101] |
| 6.34 | N[C@@H]1CCN(c2ccc(-n3ccc(OCc4ccc(Cl)cc4)cc3=O)cn2)C1 [Example 105] |
| 65.8 | O=c1cc(OCc2ccc(Cl)cc2)ccn1-c1ccc(N2CCC[C@@H](O)C2)nc1 [Example 106] |
| 5.43 | O=c1cc(OCc2ccc(Cl)cc2)ccn1-c1ccc(N2C[C@H]3CNC[C@H]3C2)nc1 [Example 107] |
| 41.6 | O=c1cc(OCc2ccccc2)ccn1-c1ccc(N2CCCCC2)nc1 [Example 110] |
| 161 | CNC1CN(c2ccc(-n3ccc(OCc4ccccc4)cc3=O)cn2)C1 [Example 111] |
| 184 | CNC1CN(c2ccc(-n3ccc(OCc4ccc(F)cc4)cc3=O)cn2)C1 [Example 112] |
| 50.4 | O=c1cc(OCc2ccc(F)cc2)ccn1-c1ccc(N2CC[C@@H](O)C2)nc1 [Example 113] |
| 47.9 | O=c1cc(OCc2ccc(F)cc2)ccn1-c1ccc(N2CC[C@H](O)C2)nc1 [Example 114] |
| 100 | O=c1cc(OCc2ccc(F)cc2)ccn1-c1ccc(N2CCC(O)CC2)nc1 [Example 115] |
| 26.9 | O=c1cc(OCc2ccc(F)cc2)ccn1-c1ccc(N2CCCC2)nc1 [Example 116] |
| 11.5 | N[C@H]1CCN(c2ccc(-n3ccc(OCc4ccc(F)cc4)cc3=O)cn2)C1 [Example 118] |
